From patent US11130679B2, “Biodegradable hollow nanoparticles and methods and apparatus for manufacturing the same” (University of Utah Research Foundation, priority 2018, dated 2021) come the findings set out here.

Counter-ions that a name gives are not always drawn.

A short description of the data set: CCK-8 cytotoxicity in MCF-7 cells. The class given is cell-based. To be noted: human, MCF-7 breast cancer epithelial cells, MCF-7, 6 μg mL^−1 of DOX. The procedure: Cytotoxicity of the intact GSH-sensitive HMSiO2 NPs, TEOS HMSiO2 NPs, DOX-loaded GSH-sensitive HMSiO2 NPs, DOX-loaded TEOS HMSiO2 NPs, and free DOX was evaluated in MCF-7 breast cancer epithelial cells. Cells were cultured at 37° C. in 5% CO2 in DMEM with 10% FBS. Then, the cells were stained using Trypan Blue Stain 0.4% and read by Invitrogen Countess™ automated cell counter (Thermo Fisher Scientific Corporation, Grand Island, N.Y., USA). For the cytotoxicity evaluation, cells were seeded onto 96-well plates with the density of 4,000 cells/well and incubated to grow for 48 h. After 48 h, the cells were washed with PBS. Fresh media containing 10% FBS was then added (120 μL) with varying nanoparticle concentrations ranging from 0 to 1,000 μg mL^−1. Wells with media or Triton™ X-100 (without nanoparticles) were used as negative or positive controls, respectively. The cells were then incubated for another 24 and 48 h, the media was aspirated, and the cells were washed twice with PBS. Cell viability was determined using CCK-8 cytotoxicity assay kit according to an established protocol and absorbance was measured at 450 nm with SpectraMax® M2 microplate reader. Assays were performed at least in triplicate.

For `COc1cccc2c1C(=O)c1c(O)c3c(c(O)c1C2=O)C[C@@](O)(C(=O)CO)C[C@@H]3O[C@H]1C[C@H](N)[C@H](O)[C@H](C)O1` [free DOX, Doxorubicin hydrochloride salt], the cytotoxicity at 24 h, 6 μg mL^−1 (24 h incubation, read-out: Cell viability reduction (cells killed)) was roughly 64%. For the same compound, for the setting “48 h incubation, read-out: Cell viability reduction”, the cytotoxicity at 48 h, 6 μg mL^−1 was roughly 80%.
